Test results: patent publication US7964531B2, “3-phenoxy-4-pyridazinol derivatives and herbicidal composition containing the same” (Mitsui Chemicals Agro, Inc., priority 2001, dated 2011)

What was measured:
Assay type in all cases: in vivo
[1] = system: black nightshade; test: Test Example 5: herbicidal effects, upland (soil treatment); settings: after 21 days
Protocol: (§1) Upland soil was filled in 150 cm^2 pot, and seeds of barnyardgrass, Cyperus esculentus L., velvetleaf, black nightshade, tall morningglory and corn were sowed, and grown in a greenhouse. At the next day of seeding, a predetermined chemical dosage of the wettable powder prepared in accordance with Preparation example 5 was diluted with water and applied to soil surface. After 21 days from the treatment, herbicidal effects and crop injury against corn were judged according to the following judgment standard, and the results were shown in Tables 6 to 8.
(§2) Judgment Standard • 0: Growth inhibition rate; 0 to 9% • 1: Growth inhibition rate; 10 to 19% • 2: Growth inhibition rate; 20 to 29% • 3: Growth inhibition rate; 30 to 39% • 4: Growth inhibition rate; 40 to 49% • 5: Growth inhibition rate; 50 to 59% • 6: Growth inhibition rate; 60 to 69% • 7: Growth inhibition rate; 70 to 79% • 8: Growth inhibition rate; 80 to 89% • 9: Growth inhibition rate; 90 to 98% • 10: Growth inhibition rate; 99 to 100%.

[2] = system: tall morningglory; test: as above; settings: after 21 days
Protocol: as §1, §2

[3] = system: velvetleaf; test: as above; settings: after 21 days
Protocol: as §1, §2

[4] = system: barnyardgrass; test: as above; settings: after 21 days
Protocol: as §1, §2

[5] = system: barnyardgrass (Echinochloa oryzicola Vasing.); test: Test Example 4: herbicidal effects of mixed wettable powder, paddy-field pot test; settings: no second compound, after 25 days
Protocol: (§3) Paddy filed soil was filled in 1/5000 are Wagner pot, seeds of barnyardgrass (Echinochloa oryzicola Vasing.), Scirpus joncoides and annual broad-leaved weeds (Lindernia spp. and Rotala indica) which are awaken from dormancy were mixed at the surface layer of 1 cm. Also, tubers of Cyperus serotinus, Sagittaria pygmaea and Eleocharis kuroguwai which are awaken from dormancy were planted, and further seedlings of paddy-field rice at 2.2-leaf stage were transplanted and they were grown under the flooded condition in a greenhouse. After 3 days from the transplanting, a predetermined chemical dosage of the wettable powder prepared in accordance with Preparation example 5 was diluted with water, and applied to the pot. After 25 days, herbicidal effects and crop injury against transplanted paddy-field rice were judged according to the following judgment standard, and the results were shown in Table 5. Incidentally, “-” in the table means a composition containing no effective ingredient.
(§4) Judgment Standard • 0: Growth-inhibition rate; 0 to 15% • 1: Growth inhibition rate; 16 to 35% • 2: Growth inhibition rate; 36 to 55% • 3: Growth inhibition rate; 56 to 75% • 4: Growth inhibition rate; […] • 5: Growth inhibition rate; 96 to 100%.

[6] = system: annual broad-leaved weeds (Lindernia spp. and Rotala indica); test: as above; settings: no second compound, after 25 days
Protocol: as §3, §4

[7] = system: Cyperus serotinus; test: as above; settings: no second compound, after 25 days
Protocol: as §3, §4

[8] = system: Eleocharis kuroguwai; test: as above; settings: no second compound, after 25 days
Protocol: as §3, §4

[9] = system: Sagittaria pygmaea; test: as above; settings: no second compound, after 25 days
Protocol: as §3, §4

[10] = system: Scirpus joncoides; test: as above; settings: no second compound, after 25 days
Protocol: as §3, §4

[11] = system: transplanted paddy-field rice; test: Test Example 4: crop injury against transplanted paddy-field rice; settings: no second compound, after 25 days
Protocol: as §3, §4

[12] = system: barnyardgrass (Echinochloa oryzicola Vasing.); test: Test Example 1: herbicidal effects, paddy-field pot test; settings: wettable powder applied 3 days after transplanting, judged after 25 days
Method in brief: (§5)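 Scores are growth inhibition ratings from 0 (0–10%) to 5 (91–100%), judged 25 days after a water-diluted wettable powder was applied to flooded pots. Treatment followed transplanting of 2.2-leaf rice by 3 days; weeds were seeded at the soil surface or planted as germinated tubers.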

[13] = system: Cyperus serotinus; test: as above; settings: wettable powder applied 3 days after transplanting, judged after 25 days
Method in brief: as §5

[14] = system: annual broad-leaved weeds (Lindernia spp., Rotala indica); test: as above; settings: wettable powder applied 3 days after transplanting, judged after 25 days
Method in brief: as §5

[15] = system: Scirpus joncoides; test: as above; settings: wettable powder applied 3 days after transplanting, judged after 25 days
Method in brief: as §5

[16] = system: transplanted paddy-field rice; test: Test Example 1: crop injury against transplanted paddy-field rice; settings: wettable powder applied 3 days after transplanting, judged after 25 days
Method in brief: as §5

Row | SMILES | Herbicidal effects Barnyard grass ([5]; derivative 5 g/a) | Herbicidal effects Barnyard grass ([5]; derivative 10 g/a) | Herbicidal effects Broad leaf ([6]; derivative 5 g/a) | Herbicidal effects Broad leaf ([6]; derivative 10 g/a) | Herbicidal effects Cyperus serotinus ([7]; derivative 5 g/a) | Herbicidal effects Cyperus serotinus ([7]; derivative 10 g/a) | Herbicidal effects Eleocharis kuroguwai ([8]; derivative 5 g/a) | Herbicidal effects Eleocharis kuroguwai ([8]; derivative 10 g/a) | Herbicidal effects Sagittaria pygmaea ([9]; derivative 5 g/a) | Herbicidal effects Sagittaria pygmaea ([9]; derivative 10 g/a) | Herbicidal effects Barnyard grass ([12]; chemical dosage 10 g/a) | Herbicidal effects Barnyard grass ([12]; chemical dosage 20 g/a) | Herbicidal effects Cyperus serotinus ([13]; chemical dosage 10 g/a) | Herbicidal effects Cyperus serotinus ([13]; chemical dosage 20 g/a) | Herbicidal effects Broad leaf ([14]; chemical dosage 10 g/a) | Herbicidal effects Broad leaf ([14]; chemical dosage 20 g/a) | Herbicidal effects Scirpus joncoides ([15]; chemical dosage 10 g/a) | Herbicidal effects Scirpus joncoides ([15]; chemical dosage 20 g/a) | Crop injury against transplanted rice ([16]; chemical dosage 10 g/a) | Crop injury against transplanted rice ([16]; chemical dosage 20 g/a) | further results
1 | CS(=O)(=O)c1cc(C(F)(F)F)ccc1C(=O)c1cnoc1C1CC1 [Compound D, 5-cyclopropyl-1,2-oxazol-4-yl α,α,α-trifluoro-2-mesyl-p-tolyl ketone] |  |  |  |  |  |  |  |  |  |  |  |  |  |  |  |  |  |  |  |  | Herbicidal effects Black Nightshade ([1]; D alone 6.3 g/ha): 5 (Growth inhibition rate; 50 to 59%); Herbicidal effects Black Nightshade ([1]; D alone 12.5 g/ha): 9 (Growth inhibition rate; 90 to 98%); Herbicidal effects Black Nightshade ([1]; D alone 25 g/ha): 9 (Growth inhibition rate; 90 to 98%); Herbicidal effects Tall Morningglory ([2]; D alone 6.3 g/ha): 2 (Growth inhibition rate; 20 to 29%); Herbicidal effects Tall Morningglory ([2]; D alone 12.5 g/ha): 0 (Growth inhibition rate; 0 to 9%); Herbicidal effects Tall Morningglory ([2]; D alone 25 g/ha): 5 (Growth inhibition rate; 50 to 59%); Herbicidal effects Velvetleaf ([3]; D alone 6.3 g/ha): 6 (Growth inhibition rate; 60 to 69%); Herbicidal effects Velvetleaf ([3]; D alone 12.5 g/ha): 7 (Growth inhibition rate; 70 to 79%); Herbicidal effects Velvetleaf ([3]; D alone 25 g/ha): 9 (Growth inhibition rate; 90 to 98%); Herbicidal effects Barnyard grass ([4]; D alone 6.3 g/ha): 3 (Growth inhibition rate; 30 to 39%); Herbicidal effects Barnyard grass ([4]; D alone 12.5 g/ha): 10 (Growth inhibition rate; 99 to 100%); Herbicidal effects Barnyard grass ([4]; D alone 25 g/ha): 10 (Growth inhibition rate; 99 to 100%)
2 | Oc1cc(Cl)nnc1Oc1ccccc1C1CC1 [Example 6] | 1 (Growth inhibition rate; 16 to 35%) | 2 (Growth inhibition rate; 36 to 55%) | 5 (Growth inhibition rate; 96 to 100%) | 5 (Growth inhibition rate; 96 to 100%) | 5 (Growth inhibition rate; 96 to 100%) | 5 (Growth inhibition rate; 96 to 100%) | 2 (Growth inhibition rate; 36 to 55%) | 3 (Growth inhibition rate; 56 to 75%) | 5 (Growth inhibition rate; 96 to 100%) | 5 (Growth inhibition rate; 96 to 100%) | 2 (Growth inhibition rate; 31 to 50%) | 3 (Growth inhibition rate; 51 to 70%) | 5 (Growth inhibition rate; 91 to 100%) | 5 (Growth inhibition rate; 91 to 100%) | 5 (Growth inhibition rate; 91 to 100%) | 5 (Growth inhibition rate; 91 to 100%) | 5 (Growth inhibition rate; 91 to 100%) | 5 (Growth inhibition rate; 91 to 100%) | 0 (Growth inhibition rate; 0 to 10%) | 0 (Growth inhibition rate; 0 to 10%) | Herbicidal effects Scirpus joncoides ([10]; derivative 5 g/a): 5 (Growth inhibition rate; 96 to 100%); Herbicidal effects Scirpus joncoides ([10]; derivative 10 g/a): 5 (Growth inhibition rate; 96 to 100%); Crop injury against transplanted rice ([11]; derivative 5 g/a): 0 (Growth-inhibition rate; 0 to 15%); Crop injury against transplanted rice ([11]; derivative 10 g/a): 0 (Growth-inhibition rate; 0 to 15%)
3 | COc1ccc(C)cc1Oc1nnc(Cl)cc1O [Example 16] | 0 (Growth-inhibition rate; 0 to 15%) | 0 (Growth-inhibition rate; 0 to 15%) | 5 (Growth inhibition rate; 96 to 100%) | 5 (Growth inhibition rate; 96 to 100%) | 4 (Growth inhibition rate; 7.6 to 95%) | 5 (Growth inhibition rate; 96 to 100%) | 0 (Growth-inhibition rate; 0 to 15%) | 1 (Growth inhibition rate; 16 to 35%) | 3 (Growth inhibition rate; 56 to 75%) | 4 (Growth inhibition rate; 7.6 to 95%) | 0 (Growth inhibition rate; 0 to 10%) | 1 (Growth inhibition rate; 11 to 30%) | 5 (Growth inhibition rate; 91 to 100%) | 5 (Growth inhibition rate; 91 to 100%) | 5 (Growth inhibition rate; 91 to 100%) | 5 (Growth inhibition rate; 91 to 100%) | 5 (Growth inhibition rate; 91 to 100%) | 5 (Growth inhibition rate; 91 to 100%) | 0 (Growth inhibition rate; 0 to 10%) | 0 (Growth inhibition rate; 0 to 10%) | Herbicidal effects Scirpus joncoides ([10]; derivative 5 g/a): 3 (Growth inhibition rate; 56 to 75%); Herbicidal effects Scirpus joncoides ([10]; derivative 10 g/a): 5 (Growth inhibition rate; 96 to 100%); Crop injury against transplanted rice ([11]; derivative 5 g/a): 0 (Growth-inhibition rate; 0 to 15%); Crop injury against transplanted rice ([11]; derivative 10 g/a): 0 (Growth-inhibition rate; 0 to 15%)
4 | Oc1cc(Cl)nnc1Oc1cccc2ccoc12 [Example 191] |  |  |  |  |  |  |  |  |  |  | 4 (Growth inhibition rate; 71 to 90%) | 5 (Growth inhibition rate; 91 to 100%) | 5 (Growth inhibition rate; 91 to 100%) | 5 (Growth inhibition rate; 91 to 100%) | 5 (Growth inhibition rate; 91 to 100%) | 5 (Growth inhibition rate; 91 to 100%) | 5 (Growth inhibition rate; 91 to 100%) | 5 (Growth inhibition rate; 91 to 100%) | 2 (Growth inhibition rate; 31 to 50%) | 5 (Growth inhibition rate; 91 to 100%) | Herbicidal effects Barnyard grass ([5]; derivative 2.5 g/a): 1 (Growth inhibition rate; 16 to 35%); Herbicidal effects Broad leaf ([6]; derivative 2.5 g/a): 3 (Growth inhibition rate; 56 to 75%); Herbicidal effects Cyperus serotinus ([7]; derivative 2.5 g/a): 5 (Growth inhibition rate; 96 to 100%); Herbicidal effects Eleocharis kuroguwai ([8]; derivative 2.5 g/a): 1 (Growth inhibition rate; 16 to 35%); Herbicidal effects Sagittaria pygmaea ([9]; derivative 2.5 g/a): 2 (Growth inhibition rate; 36 to 55%); Herbicidal effects Scirpus joncoides ([10]; derivative 2.5 g/a): 3 (Growth inhibition rate; 56 to 75%); Crop injury against transplanted rice ([11]; derivative 2.5 g/a): 0 (Growth-inhibition rate; 0 to 15%)
5 | Cc1cc(C)c(C2CC2)c(Oc2nnc(Cl)cc2O)c1 [Example 288] | 0 (Growth-inhibition rate; 0 to 15%) | 0 (Growth-inhibition rate; 0 to 15%) | 5 (Growth inhibition rate; 96 to 100%) | 5 (Growth inhibition rate; 96 to 100%) | 4 (Growth inhibition rate; 7.6 to 95%) | 5 (Growth inhibition rate; 96 to 100%) | 2 (Growth inhibition rate; 36 to 55%) | 3 (Growth inhibition rate; 56 to 75%) | 5 (Growth inhibition rate; 96 to 100%) | 5 (Growth inhibition rate; 96 to 100%) | 0 (Growth inhibition rate; 0 to 10%) | 1 (Growth inhibition rate; 11 to 30%) | 5 (Growth inhibition rate; 91 to 100%) | 5 (Growth inhibition rate; 91 to 100%) | 5 (Growth inhibition rate; 91 to 100%) | 5 (Growth inhibition rate; 91 to 100%) | 5 (Growth inhibition rate; 91 to 100%) | 5 (Growth inhibition rate; 91 to 100%) | 0 (Growth inhibition rate; 0 to 10%) | 0 (Growth inhibition rate; 0 to 10%) | Herbicidal effects Scirpus joncoides ([10]; derivative 5 g/a): 5 (Growth inhibition rate; 96 to 100%); Herbicidal effects Scirpus joncoides ([10]; derivative 10 g/a): 5 (Growth inhibition rate; 96 to 100%); Crop injury against transplanted rice ([11]; derivative 5 g/a): 0 (Growth-inhibition rate; 0 to 15%); Crop injury against transplanted rice ([11]; derivative 10 g/a): 0 (Growth-inhibition rate; 0 to 15%)
